Earlier results as cited in patent US20080160065A1 (priority 2006, published 2008).
Like-named read-outs stand apart in the source and are kept apart here.

Conditions: injected intramuscularly

**Q.** With `CCC[C@@H]1C[C@@H](C(=O)N[C@@H]([C@H]2O[C@H](SC)[C@H](O)[C@@H](O)[C@H]2O)[C@H](C)Cl)N(C)C1` [clindamycin] as the molecule, how does the “time to peak plasma concentration” value (adults) read?
**A.** Its value is 2 h.

**Q.** And the “time to peak plasma concentration” value (children)?
**A.** Its value is 1 h.
